Laboratory results from patent US12551576B2, “Chemiluminescent probes” (The General Hospital Corporation, priority 2020, dated 2026).

What was measured:
[1] = test system: PA-K2; test: ThT fluorescence test with PA-K and PA-K2; format: binding
[2] = test system: misfoldons in serum; test: ThT test of misfoldons in serum; parameters: species or system human; settings: some misfoldons
Excerpt: However, the detected difference was much smaller than that by ADLumin-1.

[3] = Fluorescence and chemiluminescence spectral studies; format: physicochemical
Method: Materials and Methods: reagents used for the synthesis were purchased from Sigma-Aldrich and used without further purification. Column chromatography was performed on a glass column slurry-packed with silica gel (60 Å, […]; SiliCycle Inc.). Recombinant Aβ peptide (1-40/42) were purchased from rPeptide (A-1163-1). Aβ aggregates for in vitro studies were generated by slow stirring of Aβ40 in PBS buffer for 3 days at room temperature. ^1H and ^13C NMR spectra were recorded at 500 MHz and 125 MHz on Bruker spectrometers in CDCl3, CD3OD or DMSO-d6 solutions at room temperature with tetramethylsilane (TMS, δ=0) as an internal standard. Liquid chromatography-mass spectrometry (LC-MS) was performed using an Agilent 1200 Series apparatus with an LC/MSD trap and Daly conversion dynode detector with UV detection at 254 nm. Fluorescence measurements were carried out using an F-7100 fluorescence spectrophotometer (Hitachi). Transgenic female 5×FAD mice and age-matched wild-type female mice were purchased from Jackson Laboratory. All animal experiments were approved by the Institutional Animal Use and Care Committee at Massachusetts General Hospital. The IVIS Spectrum animal imaging system (PerkinElmer) was used for in vitro and in vivo imaging.
Fluorescence spectral studies: Normally, all chemiluminescent molecules are fluorescent. The excitation and emission spectra of ADLumin-X were recorded and the emission peak of ADLumin-1 was around 590 nm (FIG. 1D) in DMSO, which is considerably longer than most of the commercially available chemiluminescence probes. The emission of ADLumin-2 is longer than that of ADLumin-1, due to its additional double-bond. (the emission peak of ADLumin-2 was 20 nm longer). […] Based on this fact, ADLumin-1 was used throughout this example, due to its high QY.
Chemiluminescence spectral studies: ADLumin-1 is stable in PBS buffer and organic solvents, including acetonitrile, dichloromethane and methanol. […] Without being bound by any theory, it is believed that the luminescence was due to the auto-oxidation of ADLumin-1. Although the mechanism of chemiluminescence of IPO derivatives has been studied, the mechanism of auto-oxidation has been rarely explored. In the course of the experiments, ADLumin-1 emitted very strong luminescence in pure DMSO (FIG. 2b). Unexpectedly, if the ADLumin-1 DMSO solution was stirred, even stronger luminescence can be detected (3.4-fold in FIG. 2b). Without being bound by any theory, it is believed that the luminescence was related to oxygen levels in DMSO. […] However, the increasing-fold decreased with cycles (FIG. 2c). […] Since no ROS were added into the DMSO solution, it is reasonable to infer that the auto-oxidation of ADLumin-1 was oxygen-level dependent. It is worthy to note that green fluorescent protein and luciferase/luciferin also dependent on oxygen for their proper imaging functions.

[4] = biological target: Aβ40 aggregates (Homo sapiens, UniProt P05067); test: In vitro chemiluminescence study with Aβ aggregates in PBS; format: binding; settings: pH 7.4
Chain of Aβ40 aggregates (P05067 672-711 limits assumed): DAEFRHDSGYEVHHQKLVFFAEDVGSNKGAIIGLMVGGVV

Cc1ccc2c(c1)sc(-c1ccc(N(C)C)cc1)[n+]2C.[Cl-] [ThT, Thioflavin T]
difference lower than the difference provided by ADLumin-1 [1]: 11.8 fold
fluorescence difference between PA-K and PA-K2 ([1]; ThT 0.01 mg/ml): about 4.01 fold
peptide concentration at which the difference PA-K vs PA-K2 is detected ([1]; fluorescence): 0.1 mg/mL
ThT signal for misfoldons in serum [2]: slightly higher signal

firefly luciferin [reference compound]
emission peak (FWHM comparison) [3]: 570 nm
full width at half-maximum (FWHM) [3]: 83 nm

Cc1nc2c[nH]c(/C=C/C=C/C=C/c3ccc(N(C)C)cc3)cn-2c1=O [ADLumin-2, 6-((1E,3E,5E)-6-(4-(dimethylamino)phenyl)hexa-1,3,5-trien-1-yl)-2-methylimidazo[1,2-a]pyrazin-3(7H)-one]
quantum yield ratio ΦADLumin-1/ΦADLumin-2 [3]: 1.5
emission peak longer than that of ADLumin-1 ([3]; fluorescence, DMSO): 20 nm

MCLA [reference compound]
chemiluminescence signal with Aβs [4]: significantly reduced signal
